From publication PMC12494099, “Discovery and Characterization of Novel IKZF1/3 Glue Degraders against Multiple Hematological Cancer Cell Lines” (Oncology Research, 2025)
Read-outs that look alike come from different tables or passages of the source.

Assay: Pharmacokinetic study in vivo
Set-up: species or system BALB/c mice
Conditions: mice; for MRT inf: read-out: MRT0-inf
Description: BALB/c mice weighing 19–21 g were procured from Beijing Vital River Laboratory Animal Technology Co., Ltd. (Beijing, China). The animals were housed under conditions of constant temperature and humidity, with a 12-h light-dark cycle for lighting. The mice had free access to water and food but were fasted for 12 h before intragastric administration. This study has been approved by the Animal Care and Use Committee Ethics Committee of the National Beijing Center for Drug Safety Evaluation and Research; the approval number is IACUC-DWZX-2024-P557.
Six male BALB/c mice were randomly assigned to two groups, with three mice in each group. MGD-C9 was administered via intravenous (i.v., 2 mg/kg in a solution of 10% DMSO, 2% Tween 80% and 88% H2O) and oral (p.o., 50 mg/kg in the same vehicle) routes to assess its pharmacokinetic (PK) characteristics. Blood samples (0.05 mL) were collected into heparinized tubes at pre-dose and at 0, 0.0833-, 0.25-, 0.5-, 1-, 2-, 4-, 6-, 8-, and 24 h post-administration. Plasma samples were obtained by centrifuging the blood for 10 min.
The plasma supernatant was then stored at −80°C and thawed at room temperature for subsequent analysis. For preparation, 10 μL of plasma was mixed with 10 μL working solution, followed by protein precipitation with 50 μL acetonitrile containing propranolol hydrochloride internal standard (50 ng/mL). After vortexing (1 min) and centrifugation (18,800× g, 10 min, 4°C), the supernatant was collected, diluted two-fold with 50% acetonitrile/water (v/v), and mixed. MGD-C9 plasma concentrations were quantified by LC-MS/MS using Analyst 1.5.1 (Applied Biosystem, Shanghai, China).
Automated peak integration was performed for atlas samples. The peak area ratio (sample/internal standard) was used for concentration regression analysis, applying linear regression with 1/X^2 weighting. Pharmacokinetic parameters (AUC, t1/2, MRT) across administration routes, and Cmax/Tmax after oral dosing, were calculated via non-compartmental analysis using WinNonlin v6.3 (Pharsight, Lawrenceville, GA, USA).
Experimental data were presented as “Mean ± SD” (n = 3).

[1] = male, BALB/c, mouse, plasma, iv, 2 mg/kg
[2] = male, BALB/c, mouse, plasma, po, 50 mg/kg

- AUC(0-inf) [1]: 1360 ± 190 ng·h/mL
- Cmax [1]: 3690 ± 713 ng/mL
- half-life [1]: 12 ± 4.2 min
- MRT inf (male, BALB/c, mouse, plasma, iv, i.v., 2 mg/kg): 15.6 ± 7.2 min
- Vd (male, BALB/c, mouse, plasma, iv, i.v., 2 mg/kg, read-out: Vz): 0.42 ± 0.14 L/kg
- bioavailability (male, BALB/c, mouse, plasma, oral, p.o. 50 mg/kg vs i.v. 2 mg/kg, read-out: F (oral bioavailability)): 33.5%
- Tmax [2]: ~30 min
- AUC(0-inf) [2]: 11400 ± 553 ng·h/mL
- Cmax [2]: 5590 ± 222 ng/mL
- half-life [2]: 53.4 ± 13.8 min
- MRT inf (male, BALB/c, mouse, plasma, po, p.o., 50 mg/kg): 90.6 ± 10.2 min
- Vz (p.o., 50 mg/kg): 5.62 ± 1.23 L/kg
Compound: CN1CCN(Cc2cccc(C(=O)NC3CCC(=O)NC3=O)c2F)C(=O)C1 (stereo not drawn) [MGD-C9, N-(2,6-dioxopiperidin-3-yl)-2-fluoro-3-((4-methyl-2-oxopiperazin-1-yl)methyl)benzamide]
